Data as given in ChEMBL document CHEMBL1141845, “A new bistetrahydrofuran acetogenin from the roots of Annona salzmanii” (J Nat Prod, 1999).

Experiments:
[1] = Cytotoxicity against african green monkey Vero cells; assay type: cell-based; details: chlorocebus sabaeus, read-out: ED50 (the source's name)
[2] = system: KB; assay: Cytotoxicity against human KB cells; assay type: functional

Compound `CCCCCC[C@H](O)CCC[C@H](O)[C@H]1CC[C@@H]([C@H]2CC[C@H]([C@H](O)CC[C@H](O)CCCCCCCCCC3=C[C@H](C)OC3=O)O2)O1` [SALZMANIN] has a CC50 [1] greater than 0.01 µg/mL and an ED50 [2] of 0.1 ×10⁻⁴ ug/ml.
For `CCCCCC[C@H](O)CCC[C@H](O)[C@H]1CC[C@H]([C@H]2CC[C@H]([C@H](O)CCCCCCCCCCCCC3=C[C@H](C)OC3=O)O2)O1` [SQUAMOCIN], the ED50 [2] was 4 ×10⁻⁴ ug/ml.
For `CC[C@]1(O)C[C@@H]2CN(CCc3c([nH]c4ccccc34)[C@@](C(=O)OC)(c3cc4c(cc3OC)N(C)[C@H]3[C@@](O)(C(=O)OC)[C@H](OC(C)=O)[C@]5(CC)C=CCN6CC[C@]43[C@@H]65)C2)C1` [VINBLASTINE], the ED50 [2] was 0.1 ×10⁻⁴ ug/ml.
